Results on four compounds are retold here after paper doi:10.1101/2023.10.24.563163v2, “Targeting cancer with small molecule pan-KRAS degraders” (biorxiv, 2024).

The term Dmax denotes the greatest extent of degradation seen. As a reminder, the Kd is the equilibrium constant for the complex coming apart. A higher Kd goes with weaker binding. In general, DC50 refers to the concentration at which degradation of the target reaches its halfway point. One may read the IC50 as the concentration that inhibits the measured activity by half. Low readings indicate inhibition by little substance, high ones a need for much substance.

Each structure is given as a SMILES string. Read-outs that look alike come from different tables or passages of the source.

In assay [1] the target is KRAS^G12D (Homo sapiens, UniProt P01116, G12D). Nature of the assay: cell-based. The arrangement: endogenous; KRAS degradation by capillary electrophoresis immunodetection. The conditions noted are these: GP5d; read-out: Dmax 24 h GP5d [%]. The procedure: (§1) Protein Detection by Capillary Electrophoresis Cells (50 000) were seeded the day before treatment into 96-well clear-flat bottom plates and incubated overnight (37 °C, humidified tissue culture incubator, 5% CO2). Compounds were added from DMSO stock solution using a digital dispenser and cells are incubated at 37 °C as specified (24 hours for KRAS degradation, 6 hours for determination of pERK levels). At the end of the incubation, medium was removed, cells washed with ice cold PBS, PBS removed and 50 µL lysis buffer (Meso Scale Discovery #R60TX-2) supplemented with 1:100 protease inhibitor solution, 1:100 phosphatase inhibitor I, 1:100 phosphatase inhibitor II (Meso Scale Discovery #R70AA-1), 0.5 µL/mL Benzonase (Novagen #70664-3) and 10 mM dithiothreitol added to each well. Plates with lysis buffer were immediately transferred to -80 °C freezer for at least 2 hours and then thawed on ice. Lysates were transferred to a 96 well V-bottom plate and insoluble debris was pelleted by centrifugation for 20 min. at 4 000 rpm. 40 µL of the supernatant were transferred to a fresh Eppendorf PCR plate. Analysis of protein levels was conducted using the Wes System, ProteinSimple (https://www.bio-techne.com/) as specified by the manufacturer. Briefly, Wes Master Mix (12-230 kDa WES Separation Module, 8 × 25 capillary cartridges, ProteinSimple #SM-W004) and molecular weight markers were prepared as specified in the manufacturer’s recommendations. To detect primary antibodies, anti-rabbit (Protein Simple #DM-001) or anti-mouse (Protein Simple #DM-002) detection modules were used. 7.2 µL lysate + 1.8 µL master mix were combined and heated to 95 °C for 5 min.

Assay [2] concerns the target T1, VCB:KRAS ternary complex partners (Homo sapiens, UniProt P01116+P40337, P01116:C118S/P01116:G12D).
T1 construct: VCB (Avi-tagged, biotinylated for SPR) plus KRAS 1-169 C118S GDP; E. coli, His6 tags removed; with Elongin-C; Elongin-B
Nature of the assay: biochemical. The arrangement: SPR binary and ternary complex binding affinity and kinetics. The settings on record: SPR; for kon: read-out: SPR VCB+KRAS^G12D kon [1/(M s)]. An excerpt: With the objective of identifying molecules that potently degrade multiple KRAS mutants we next sought to employ structure-based design using the solved ternary co-crystal structure of compound 3 to improve ternary complex stability and intracellular VHL engagement. […] Analysis of the VCB:compound 3:KRAS^G12V co-crystal structure (Fig. 1H) highlighted an opportunity to enhance interactions within the ternary complex by improving π-stacking between the exit vector amide of the VHL ligand and Tyr112. We therefore switched the amide for an isoxazole, which has been previously reported to improve VCB affinity in this position in other contexts ([22]), yielding compound 4 (Fig. 2A). A ternary complex co-crystal structure of VCB:compound 4:KRAS^G12V (PDB 8QW7) confirmed a consistent overall binding mode to that observed for compound 3 (RMSD = 0.72 Å), with compound 4 able to engage in π-stacking interaction between the isoxazole and Tyr112 of VCB as designed (Fig. 2B). […] FP, SPR and cellular target engagement studies support a minor improvement in binary VHL engagement for compound 4, with moderate cooperativity retained (fig. S2A-C, table S1). […] We then investigated the impact of these structural changes on degradation kinetics in live HiBiT-tagged GP5d cells (fig. S3A-D). […] Aiming to measure ternary complex stability, we noted that the FP assay reached the limits of quantification due to ternary KD approaching that of the assay probe (fig. S8B).

For assay [3], the target named is T1, VCB:KRAS ternary complex partners. Nature of the assay: biochemical. The arrangement: FP displacement of FAM-HIF-1alpha peptide from VCB, with or without saturating KRAS G12D. The settings on record: FP, saturating KRAS G12D.
Assay [4] has as its target T2, KRAS^G12V (Homo sapiens, UniProt P01116, G12V). The arrangement: endogenous; KRAS degradation by capillary electrophoresis immunodetection. The conditions noted are these: read-out: DC50 24 h SW620 (converted).
The test system of assay [5] is GP2d. The assay can be described thus: cells. The arrangement: pERK levels by capillary electrophoresis. The settings on record: GP2d, 6 h. The procedure:
as §1, with “5 min. Th” for “5 min.”

Assay [6] addresses T2, KRAS^G12V. The arrangement: endogenous in SW620; KRAS degradation by capillary electrophoresis (Wes) immunodetection. The settings on record: SW620; 6 h; degrader.
Experimental: Protein Detection by Capillary Electrophoresis Cells (50 000) were seeded the day before treatment into 96-well clear-flat bottom plates and incubated overnight (37 °C, humidified tissue culture incubator, 5% CO2). Compounds were added from DMSO stock solution using a digital dispenser and cells are incubated at 37 °C as specified (24 hours for KRAS degradation, 6 hours for determination of pERK levels). At the end of the incubation, medium was removed, cells washed with ice cold PBS, PBS removed and 50 µL lysis buffer (Meso Scale Discovery #R60TX-2) supplemented with 1:100 protease inhibitor solution, 1:100 phosphatase inhibitor I, 1:100 phosphatase inhibitor II (Meso Scale Discovery #R70AA-1), 0.5 µL/mL Benzonase (Novagen #70664-3) and 10 mM dithiothreitol added to each well. Plates with lysis buffer were immediately transferred to -80 °C freezer for at least 2 hours and then thawed on ice. Lysates were transferred to a 96 well V-bottom plate and insoluble debris was pelleted by centrifugation for 20 min. at 4 000 rpm. 40 µL of the supernatant were transferred to a fresh Eppendorf PCR plate. Analysis of protein levels was conducted using the Wes System, ProteinSimple (https://www.bio-techne.com/) as specified by the manufacturer. […]

KRAS^G12D, sequence (P01116 whole entry G12D): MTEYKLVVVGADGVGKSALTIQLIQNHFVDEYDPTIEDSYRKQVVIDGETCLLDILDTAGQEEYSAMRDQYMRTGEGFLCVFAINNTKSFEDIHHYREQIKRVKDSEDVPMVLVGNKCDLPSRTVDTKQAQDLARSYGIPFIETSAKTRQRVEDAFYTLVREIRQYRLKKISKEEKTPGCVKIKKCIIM
T1 sequence (Q15370 1-104): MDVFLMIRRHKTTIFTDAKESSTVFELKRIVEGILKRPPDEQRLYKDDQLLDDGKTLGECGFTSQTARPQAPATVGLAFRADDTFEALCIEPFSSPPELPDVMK
T1 sequence (P01116 1-169 G12D/C118S): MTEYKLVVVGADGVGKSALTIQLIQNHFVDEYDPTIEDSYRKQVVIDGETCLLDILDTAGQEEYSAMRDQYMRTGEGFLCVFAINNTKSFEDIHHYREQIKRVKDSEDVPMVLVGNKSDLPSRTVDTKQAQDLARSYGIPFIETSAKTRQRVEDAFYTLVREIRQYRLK
T1 sequence (Q15369 17-112, further chain): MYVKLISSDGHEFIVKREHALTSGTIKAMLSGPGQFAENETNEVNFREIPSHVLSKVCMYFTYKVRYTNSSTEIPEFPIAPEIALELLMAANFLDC
T1 sequence (P40337 54-213): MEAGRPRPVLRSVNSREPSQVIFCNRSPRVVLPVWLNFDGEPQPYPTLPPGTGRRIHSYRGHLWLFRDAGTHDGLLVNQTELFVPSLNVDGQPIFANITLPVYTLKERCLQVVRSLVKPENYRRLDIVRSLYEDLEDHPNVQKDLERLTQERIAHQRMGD
T2 sequence (P01116 whole entry G12V): as the sequence (P01116 whole entry G12D) above, with D12V counted along it

For the compound `Cc1ncsc1-c1ccc(CNC(=O)[C@@H]2C[C@@H](O)CN2C(=O)[C@@H](NC(=O)COCCCN2CCCN(c3nccc(-c4noc([C@@]5(C)CCCc6sc(N)c(C#N)c65)n4)n3)[C@@H](C)C2)C(C)(C)C)cc1` [compound 2], the Dmax in assay [1] is 100%. For the same compound, in assay [2], the kon came to 224000 M⁻¹ s⁻¹. Besides, the Kd in assay [3] is 15 ± 2 nM. Moreover, the DC50 in assay [4] is 1200 nM.

`Cc1ncsc1-c1ccc(CNC(=O)[C@@H]2C[C@@H](O)CN2C(=O)[C@@H](NC(=O)CCCCCN2CCCN(c3nccc(-c4noc([C@@]5(C)CCCc6sc(N)c(C#N)c65)n4)n3)[C@@H](C)C2)C(C)(C)C)cc1` [compound 3]: the Dmax in assay [1] is 99%. Moreover, the values for the Kd in assay [2] and in assay [3] were 30 ± 6 nM and 20 ± 3 nM, respectively. In assay [2], the kon stood at 242000 M⁻¹ s⁻¹. In assay [5], this compound yielded an IC50 of 772 nM. The DC50 in assay [4] is 278 nM; in assay [6] it was 159 nM.

In the case of `Cc1ncsc1-c1ccc(CNC(=O)[C@@H]2C[C@@H](O)CN2C(=O)[C@@H](c2cc(OCCCCN3CCCN(c4nccc(-c5noc([C@@]6(C)CCCc7sc(N)c(C#N)c76)n5)n4)[C@@H](C)C3)no2)C(C)C)cc1` [compound 4], the Dmax in assay [1] amounted to 100%. The same compound gave an IC50 in assay [5] of 3.1 nM. Moreover, half-maximal degradation in assay [6] (DC50) was put at 24 nM.

For `Cc1ncsc1-c1ccc([C@H](CO)NC(=O)[C@@H]2C[C@@H](O)CN2C(=O)[C@H](C(C)C)n2cc(OCCCCN3CCCN(c4nccc(-c5noc([C@@]6(C)CCCc7sc(N)c(C#N)c76)n5)n4)[C@@H](C)C3)nn2)cc1` [compound 7, ACBI3], in assay [1], the Dmax is 99%. Also, in assay [4], the DC50 was 6.9 nM.
